Experimental data as given in publication PMC7176092, “Development of the first in vivo GPR17 ligand through an iterative drug discovery pipeline: A novel disease-modifying strategy for multiple sclerosis” (PLoS ONE, 2020).
Marks after values point to notes of the source that are not given here.

Key:
[1] = biological target: T1, M5 (Homo sapiens, UniProt P08912); experiment: Binding assay M5; details: reference compound
T1 construct: Eurofins Cerep (external service)
T1 sequence (P08912 1-532): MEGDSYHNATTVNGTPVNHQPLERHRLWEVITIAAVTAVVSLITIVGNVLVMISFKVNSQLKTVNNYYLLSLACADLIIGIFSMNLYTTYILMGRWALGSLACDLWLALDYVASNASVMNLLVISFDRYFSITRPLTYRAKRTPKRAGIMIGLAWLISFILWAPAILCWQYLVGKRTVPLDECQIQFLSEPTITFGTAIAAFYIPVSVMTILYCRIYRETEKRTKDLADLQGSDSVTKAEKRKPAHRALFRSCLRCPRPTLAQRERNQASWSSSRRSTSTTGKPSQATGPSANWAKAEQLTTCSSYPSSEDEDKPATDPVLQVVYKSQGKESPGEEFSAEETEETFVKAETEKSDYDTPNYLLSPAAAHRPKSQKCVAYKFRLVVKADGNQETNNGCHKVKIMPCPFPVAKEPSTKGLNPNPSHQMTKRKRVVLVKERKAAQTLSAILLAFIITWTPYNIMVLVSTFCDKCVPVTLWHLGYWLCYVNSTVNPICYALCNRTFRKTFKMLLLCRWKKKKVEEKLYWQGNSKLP

[2] = biological target: T2, human GPR17 (Homo sapiens, UniProt Q13304); experiment: [35S]GTPγS binding assay; type: biochemical; details: for EC50: membranes of 1321N1 cells transfected with human GPR17, mean ± SEM of 3 experiments
T2 construct: HA; expressed in transfected cells
Experimental: [^35S]GTPγS binding assays were carried out as previously described. Briefly, control and astrocytoma 1321N1 cells stably transfected with human pcDNA3.1 (control cells) and human HA-tag GPR17 were homogenized in 5 mM Tris/HCl and 2 mM EDTA (pH 7.4) and centrifuged at 48,000g for 15 min at 4°C. The resulting pellets were washed in 50 mM Tris/HCl and 10 mM MgCl2 (pH 7.4). After protein dosage, aliquots of cell membranes were incubated with increasing concentrations of each investigated ligand (1 pM–10 μM) and GTPγS binding to activated G-proteins was quantified as previously described. Compounds were purchased from two external providers, i.e., Ambinter (Ambinter c/o Greenpharma, Orléans, France http://www.ambinter.com/) and Asinex (http://www.asinex.com/).
For analysis and graphic presentation of [^35S]GTPγS binding data, a nonlinear multipurpose curve fitting computer program (Graph-Pad Prism) was used. All data are presented as the mean ± SEM of three different experiments.
The selected 15 molecules were evaluated in our in-house [^35S]GTPγS functional assay in membranes from cells transfected with human GPR17. […] Moreover, this assay has been already successfully used in the past to measure the ability of both endogenous and novel synthetic compounds to activate GPR17 [25, 31]. All tested molecules were able to potently activate GPR17 with nanomolar/sub-nanomolar affinities. Concentration-response curves obtained for each selected compound are reported in S4 Fig.

[3] = biological target: T3, CCR3 (Homo sapiens, UniProt P51677); experiment: Cellular functional assay CCR3
T3 sequence (P51677 1-355): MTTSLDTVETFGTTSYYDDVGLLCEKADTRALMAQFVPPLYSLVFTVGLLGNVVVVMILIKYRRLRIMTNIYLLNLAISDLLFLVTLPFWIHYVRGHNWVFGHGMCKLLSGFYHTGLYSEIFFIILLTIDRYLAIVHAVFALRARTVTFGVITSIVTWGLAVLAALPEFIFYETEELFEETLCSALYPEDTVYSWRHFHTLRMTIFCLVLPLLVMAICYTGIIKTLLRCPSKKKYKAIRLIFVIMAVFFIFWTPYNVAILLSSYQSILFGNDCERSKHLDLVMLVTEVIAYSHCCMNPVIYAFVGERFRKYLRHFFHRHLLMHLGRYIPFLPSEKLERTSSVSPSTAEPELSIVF

[4] = biological target: T4, mGluR5 (Homo sapiens, UniProt P41594); experiment: Binding assay mGluR5; details: reference compound
T4 construct: Eurofins Cerep (external service)

[5] = biological target: T5, CXCR2 (Homo sapiens, UniProt P25025); experiment: Binding assay CXCR2; details: reference compound
T5 construct: Eurofins Cerep (external service)
T5 sequence (P25025 1-360): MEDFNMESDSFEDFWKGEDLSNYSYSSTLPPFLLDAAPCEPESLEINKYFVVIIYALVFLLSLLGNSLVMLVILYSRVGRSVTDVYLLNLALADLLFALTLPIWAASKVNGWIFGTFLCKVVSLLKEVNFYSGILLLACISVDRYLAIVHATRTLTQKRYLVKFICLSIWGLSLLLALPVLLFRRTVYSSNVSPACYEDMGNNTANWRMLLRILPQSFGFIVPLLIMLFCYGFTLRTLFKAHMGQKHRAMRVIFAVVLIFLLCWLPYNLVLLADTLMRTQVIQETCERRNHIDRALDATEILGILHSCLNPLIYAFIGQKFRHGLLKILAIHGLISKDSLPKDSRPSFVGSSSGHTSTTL

[6] = biological target: T6, CCR2 (Homo sapiens, UniProt P41597); experiment: Binding assay CCR2; details: reference compound
T6 construct: Eurofins Cerep (external service)

[7] = biological target: P2Y; experiment: Binding assay P2Y; parameters: species or system human; details: reference compound
[8] = biological target: T7, CXCR1 (Homo sapiens, UniProt P25024); experiment: Cellular functional assay CXCR1; details: reference agonist
T7 sequence (P25024 1-350): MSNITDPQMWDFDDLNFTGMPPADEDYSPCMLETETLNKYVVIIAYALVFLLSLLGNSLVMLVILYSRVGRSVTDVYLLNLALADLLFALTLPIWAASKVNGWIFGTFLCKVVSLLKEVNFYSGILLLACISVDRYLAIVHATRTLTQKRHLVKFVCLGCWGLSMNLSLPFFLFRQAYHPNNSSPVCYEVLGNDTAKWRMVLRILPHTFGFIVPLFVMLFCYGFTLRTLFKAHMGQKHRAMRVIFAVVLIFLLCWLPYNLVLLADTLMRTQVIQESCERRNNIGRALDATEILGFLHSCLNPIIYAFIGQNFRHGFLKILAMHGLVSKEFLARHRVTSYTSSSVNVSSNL

[9] = biological target: T8, CX3CR1 (Homo sapiens, UniProt P49238); experiment: Cellular functional assay CX3CR1; details: reference agonist
T8 sequence (P49238 1-355): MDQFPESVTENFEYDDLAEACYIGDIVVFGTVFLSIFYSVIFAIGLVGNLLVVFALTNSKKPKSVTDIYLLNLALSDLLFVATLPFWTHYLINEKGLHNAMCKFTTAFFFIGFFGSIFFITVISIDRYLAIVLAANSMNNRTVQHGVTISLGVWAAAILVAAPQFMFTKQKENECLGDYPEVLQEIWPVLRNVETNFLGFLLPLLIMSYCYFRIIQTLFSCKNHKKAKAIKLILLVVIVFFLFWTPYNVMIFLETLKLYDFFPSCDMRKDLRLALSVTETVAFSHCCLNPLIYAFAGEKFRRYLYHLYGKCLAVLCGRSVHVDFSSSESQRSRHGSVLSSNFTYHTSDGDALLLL

[10] = standard LTD4 50 nM set to 100% († compounds)
[11] = standard LTC4 50 nM set to 100% (¶ compounds)

T2 sequence (Q13304 29-367): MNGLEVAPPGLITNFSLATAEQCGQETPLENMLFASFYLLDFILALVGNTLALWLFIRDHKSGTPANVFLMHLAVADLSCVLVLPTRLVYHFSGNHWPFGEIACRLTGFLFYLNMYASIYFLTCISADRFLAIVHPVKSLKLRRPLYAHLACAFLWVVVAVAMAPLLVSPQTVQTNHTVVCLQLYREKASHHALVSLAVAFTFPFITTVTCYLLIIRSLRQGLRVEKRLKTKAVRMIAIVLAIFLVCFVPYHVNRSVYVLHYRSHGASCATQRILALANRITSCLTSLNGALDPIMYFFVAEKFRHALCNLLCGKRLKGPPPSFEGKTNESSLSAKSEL
T4 sequence (P41594 21-1212): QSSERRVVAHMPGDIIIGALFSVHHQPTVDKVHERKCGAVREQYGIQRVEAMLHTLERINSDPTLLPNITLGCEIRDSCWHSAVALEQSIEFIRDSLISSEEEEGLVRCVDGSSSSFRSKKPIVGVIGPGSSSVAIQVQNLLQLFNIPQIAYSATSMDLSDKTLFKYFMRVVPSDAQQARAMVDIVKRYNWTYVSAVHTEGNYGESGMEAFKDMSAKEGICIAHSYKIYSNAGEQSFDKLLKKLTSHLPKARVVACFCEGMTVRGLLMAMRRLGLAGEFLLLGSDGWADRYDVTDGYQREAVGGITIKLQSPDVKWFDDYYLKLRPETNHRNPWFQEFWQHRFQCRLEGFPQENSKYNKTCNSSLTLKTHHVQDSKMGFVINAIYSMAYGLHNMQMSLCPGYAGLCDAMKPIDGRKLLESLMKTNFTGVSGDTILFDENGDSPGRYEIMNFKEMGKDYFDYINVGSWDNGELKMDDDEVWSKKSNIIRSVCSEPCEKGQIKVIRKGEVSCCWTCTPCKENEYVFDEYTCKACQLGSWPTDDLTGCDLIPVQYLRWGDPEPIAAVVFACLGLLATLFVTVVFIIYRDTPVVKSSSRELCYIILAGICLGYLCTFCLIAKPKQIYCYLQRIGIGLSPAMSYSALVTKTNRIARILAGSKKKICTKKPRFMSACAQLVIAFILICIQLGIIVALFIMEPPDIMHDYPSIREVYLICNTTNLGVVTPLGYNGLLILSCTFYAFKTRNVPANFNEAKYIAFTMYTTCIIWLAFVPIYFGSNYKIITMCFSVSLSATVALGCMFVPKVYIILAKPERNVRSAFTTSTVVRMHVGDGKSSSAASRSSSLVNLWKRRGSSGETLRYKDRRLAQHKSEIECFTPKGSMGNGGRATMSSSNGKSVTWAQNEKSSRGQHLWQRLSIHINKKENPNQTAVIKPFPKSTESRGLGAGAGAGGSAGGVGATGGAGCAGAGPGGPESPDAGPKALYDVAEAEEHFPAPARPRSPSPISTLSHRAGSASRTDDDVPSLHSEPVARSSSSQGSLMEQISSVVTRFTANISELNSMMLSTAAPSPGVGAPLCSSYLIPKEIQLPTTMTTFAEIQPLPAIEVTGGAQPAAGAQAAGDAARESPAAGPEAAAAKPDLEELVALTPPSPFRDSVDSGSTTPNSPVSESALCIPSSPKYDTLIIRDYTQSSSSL
T6 sequence (P41597 whole entry): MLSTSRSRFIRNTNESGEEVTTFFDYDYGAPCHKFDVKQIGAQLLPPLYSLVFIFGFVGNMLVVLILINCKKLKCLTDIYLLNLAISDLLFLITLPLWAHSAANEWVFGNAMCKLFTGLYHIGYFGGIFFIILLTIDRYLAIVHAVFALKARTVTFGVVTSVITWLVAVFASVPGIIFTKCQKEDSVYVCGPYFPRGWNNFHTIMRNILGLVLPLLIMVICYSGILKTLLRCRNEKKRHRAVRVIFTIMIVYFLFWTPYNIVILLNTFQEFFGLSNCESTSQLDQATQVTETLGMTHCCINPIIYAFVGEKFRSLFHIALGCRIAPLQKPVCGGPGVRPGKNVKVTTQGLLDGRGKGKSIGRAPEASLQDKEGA

Work on C[N+]1(C)CCC(OC(=O)C(c2ccccc2)c2ccccc2)CC1 [Compound 4-DAMP, 4-DAMP, reference compound] yielded an IC50 [1] of 0.73 nM and a Ki [1] of 0.37 nM.

In the case of Cn1c(SCC(=O)Nc2ccc(Cl)cc2)nnc1-c1ccc(NC(=O)c2ccccc2)cc1 [Compound 4], the EC50 [2] is reported as 0.43 ± 0.08 nM, the “% Emax (ratio vs Emax of the standard)” value [2, 10] is reported as 110.8% and the “Emax (% vs basal)” value ([2]; mean ± SEM) is reported as 160.0 ± 10.6%.

For CCc1ccccc1-n1c(SCC(=O)Nc2ccccc2Cl)nnc1-c1ccccc1O [Compound 6], the EC50 [2] was 0.52 ± 0.09 nM, the “% Emax (ratio vs Emax of the standard)” value [2, 10] was 93.5 ^* % and the “Emax (% vs basal)” value ([2]; mean ± SEM) was 135.0 ± 10.2%.

With Cc1cccc(-c2n[nH]c(SCC(=O)Nc3cccc4ccccc34)n2)c1 [Compound 7] the EC50 [2] was 0.48 ± 0.09 nM, the “% Emax (ratio vs Emax of the standard)” value [2, 10] was 104.8% and the “Emax (% vs basal)” value ([2]; mean ± SEM) was 151.3 ± 6.7%.

In the case of Cc1nc2ccc(NC(=O)CSc3nnc(-c4ccccc4)[nH]3)cc2[nH]1 [Compound 8], the EC50 [2] is reported as 0.24 ± 0.02 nM, the “% Emax (ratio vs Emax of the standard)” value [2, 10] is reported as 100.3% and the “Emax (% vs basal)” value ([2]; mean ± SEM) is reported as 144.8 ± 6.4%.

With Cc1cccc(-c2n[nH]c(SCC(=O)Nc3ccccc3)n2)c1 [Compound 10] the EC50 [2] was 0.24 ± 0.06 nM, the “% Emax (ratio vs Emax of the standard)” value [2, 10] was 98.3% and the “Emax (% vs basal)” value ([2]; mean ± SEM) was 142.0 ± 5.8%.

With COc1ccc(-n2c(SCC(=O)Nc3cc(C(C)(C)C)no3)nnc2-c2ccccc2OC)cc1 [Compound 11] the EC50 [2] was 22.5 ± 4.3 nM, the “% Emax (ratio vs Emax of the standard)” value [2, 11] was 95.3% and the “Emax (% vs basal)” value ([2]; mean ± SEM) was 134.3 ± 8.8%.

With CCOc1ccc(-n2c(SCC(=O)Nc3ccc(Cl)c(C(F)(F)F)c3)nnc2-c2cccc(C)c2)cc1 [Compound 12] the EC50 [2] was 7.11 ± 1.96 nM, the “% Emax (ratio vs Emax of the standard)” value [2, 11] was 90.6 ^* % and the “Emax (% vs basal)” value ([2]; mean ± SEM) was 127.7 ± 4.1%.

CCOc1ccc(-n2c(SCC(=O)Nc3ccc4c(c3)OCCO4)nnc2-c2ccccc2Cl)cc1 [Compound 13] was tested, and the EC50 [2] was 3.29 ± 0.28 nM, the “% Emax (ratio vs Emax of the standard)” value [2, 11] was 100.2% and the “Emax (% vs basal)” value ([2]; mean ± SEM) was 141.3 ± 7.6%.

COc1ccc(-c2nnc(SCC(=O)Nc3ncc(Cc4ccc(Cl)cc4)s3)n2-c2ccccc2)cc1OC [Compound 14] was tested, and the EC50 [2] was 2.7 ± 0.4 nM, the “% Emax (ratio vs Emax of the standard)” value [2, 11] was 98.8% and the “Emax (% vs basal)” value ([2]; mean ± SEM) was 139.3 ± 2.5%.

For COc1ccccc1-c1nnc(SCC(=O)Nc2ncc3c(n2)CCCC3=O)[nH]1 [Compound 15], the EC50 [2] was 2.9 ± 0.1 nM, the “% Emax (ratio vs Emax of the standard)” value [2, 11] was 97.23% and the “Emax (% vs basal)” value ([2]; mean ± SEM) was 137.1 ± 1.3%.

COc1ccccc1-c1nnc(SCC(=O)Nc2ncc3c(n2)CC(C)(C)CC3=O)[nH]1 [Compound 16] was tested, and the EC50 [2] was 3.45 ± 0.5 nM, the “% Emax (ratio vs Emax of the standard)” value [2, 11] was 99.0% and the “Emax (% vs basal)” value ([2]; mean ± SEM) was 139.6 ± 1.5%.

COc1ccccc1-c1nnc(SCC(=O)Nc2nccs2)[nH]1 [Compound 17] was tested, and the EC50 [2] was 8.48 ± 0.9 nM, the “% Emax (ratio vs Emax of the standard)” value [2, 11] was 96.6% and the “Emax (% vs basal)” value ([2]; mean ± SEM) was 136.2 ± 0.5%.

O=C(CSc1nnc2n(Cc3ccc(Cl)cc3)c3ccccc3n12)N1CCc2ccccc2C1 [Compound 19] was tested, and the EC50 [2] was 9.5 ± 1.47 nM, the “% Emax (ratio vs Emax of the standard)” value [2, 11] was 108.5 ^* % and the “Emax (% vs basal)” value ([2]; mean ± SEM) was 153.7 ± 1.1%.

CC[N+]1(C/C2=C/CCCCCC2)CCC(NC(=O)C2c3cc(Cl)ccc3Oc3ccc(Cl)cc32)CC1 (stereo not shown) [Compound J113863, J113863, reference compound] gave an IC50 ([3]; reference antagonist) of 8.9 nM.

N[C@@H](Cn1oc(=O)[nH]c1=O)C(=O)O [L-Quisqualate, reference compound] showed an IC50 [4] of 67 nM and a Ki [4] of 14 nM.

For CCCCC/C=C\C\C=C/C=C/C=C/[C@@H](SC[C@H](NC(=O)CC[C@H](N)C(=O)O)C(=O)NCC(=O)O)[C@@H](O)CCCC(=O)O [LTC4, reference compound], the “Emax (% vs basal)” value ([2]; reference agonist at 50 nM) was 141.0 ± 3.9%.

In the case of CCCCC/C=C\C\C=C/C=C/C=C/[C@@H](SC[C@H](N)C(=O)NCC(=O)O)[C@@H](O)CCCC(=O)O [LTD4, reference compound], the “Emax (% vs basal)” value ([2]; reference agonist at 50 nM) is reported as 144.4 ± 7.1%.

Molecule “IL-8: chemokine, reference compound for CXCR2 binding” has an IC50 [5] of 0.26 nM and a Ki [5] of 0.12 nM.

Molecule “MCP-1: chemokine, reference compound for CCR2 binding” has an IC50 [6] of 0.072 nM and a Ki [6] of 0.029 nM.

With dATPS [reference compound] the IC50 [7] was 51 nM and the Ki [7] was 25 nM.

“rhIL-8: recombinant chemokine, reference agonist for CXCR1” showed an EC50 [8] of 4.7 nM.

B1: CX3CL1: chemokine, reference agonist for CX3CR1 (protein, UniProt P78423 25-397, looked up)
Fractalkine: QHHGVTKCNITCSKMTSKIPVALLIHYQQNQASCGKRAIILETRQHRLFCADPKEQWVKDAMQHLDRQAAALTRNGGTFEKQIGEVKPRTTPAAGGMDESVVLEPEATGESSSLEPTPSSQEAQRALGTSPELPTGVTGSSGTRLPPTPKAQDGGPVGTELFRVPPVSTAATWQSSAPHQPGPSLWAEAKTSEAPSTQDPSTQASTASSPAPEENAPSEGQRVWGQGQSPRPENSLEREEMGPVPAHTDAFQDWGPGSMAHVSVVPVSSEGTPSREPVASGSWTPKAEEPIHATMDPQRLGVLITPVPDAQAATRRQAVGLLAFLGLLFCLGVAMFTYQSLQGCPRKMAGEMAEGLRYIPRSCGSNSYVLVPV
B1 showed an EC50 [9] of 2.2 nM.

B2: eotaxin 2: chemokine, reference agonist for CCR3 (protein, UniProt O00175 27-119, looked up)
C-C motif chemokine 24: VVIPSPCCMFFVSKRIPENRVVSYQLSSRSTCLKAGVIFTTKKGQQFCGDPKQEWVQRYMKNLDAKQKKASPRARAVAVKGPVQRYPGNQTTC
B2 was tested, and the EC50 ([3]; reference agonist) was 6.4 nM.
